pIC50: −log10 of the molar value. Where a name gives a salt, the structure may show the parent alone.
What was measured:
[1] = target: T1, angiotensin-converting enzyme (ACE) (Oryctolagus cuniculus, UniProt P12822); experiment: Inhibitory activity against angiotensin-converting enzyme (ACE); assay type: biochemical, rabbit; settings: for ACE inhibitory activity higher than Test Compound No. 4 (fold): compared with Test Compound No. 4; for pIC50: enzyme from rabbit lung acetone powder, substrate hippurylhistidyl-leucine, 37° C.
T1 construct: enzyme solution prepared from rabbit lung acetone powder; tissue Sigma Chemical Co., Ltd., U.S.A; host or cells: rabbit lung (acetone powder)
T1 sequence (P12822 34-1310): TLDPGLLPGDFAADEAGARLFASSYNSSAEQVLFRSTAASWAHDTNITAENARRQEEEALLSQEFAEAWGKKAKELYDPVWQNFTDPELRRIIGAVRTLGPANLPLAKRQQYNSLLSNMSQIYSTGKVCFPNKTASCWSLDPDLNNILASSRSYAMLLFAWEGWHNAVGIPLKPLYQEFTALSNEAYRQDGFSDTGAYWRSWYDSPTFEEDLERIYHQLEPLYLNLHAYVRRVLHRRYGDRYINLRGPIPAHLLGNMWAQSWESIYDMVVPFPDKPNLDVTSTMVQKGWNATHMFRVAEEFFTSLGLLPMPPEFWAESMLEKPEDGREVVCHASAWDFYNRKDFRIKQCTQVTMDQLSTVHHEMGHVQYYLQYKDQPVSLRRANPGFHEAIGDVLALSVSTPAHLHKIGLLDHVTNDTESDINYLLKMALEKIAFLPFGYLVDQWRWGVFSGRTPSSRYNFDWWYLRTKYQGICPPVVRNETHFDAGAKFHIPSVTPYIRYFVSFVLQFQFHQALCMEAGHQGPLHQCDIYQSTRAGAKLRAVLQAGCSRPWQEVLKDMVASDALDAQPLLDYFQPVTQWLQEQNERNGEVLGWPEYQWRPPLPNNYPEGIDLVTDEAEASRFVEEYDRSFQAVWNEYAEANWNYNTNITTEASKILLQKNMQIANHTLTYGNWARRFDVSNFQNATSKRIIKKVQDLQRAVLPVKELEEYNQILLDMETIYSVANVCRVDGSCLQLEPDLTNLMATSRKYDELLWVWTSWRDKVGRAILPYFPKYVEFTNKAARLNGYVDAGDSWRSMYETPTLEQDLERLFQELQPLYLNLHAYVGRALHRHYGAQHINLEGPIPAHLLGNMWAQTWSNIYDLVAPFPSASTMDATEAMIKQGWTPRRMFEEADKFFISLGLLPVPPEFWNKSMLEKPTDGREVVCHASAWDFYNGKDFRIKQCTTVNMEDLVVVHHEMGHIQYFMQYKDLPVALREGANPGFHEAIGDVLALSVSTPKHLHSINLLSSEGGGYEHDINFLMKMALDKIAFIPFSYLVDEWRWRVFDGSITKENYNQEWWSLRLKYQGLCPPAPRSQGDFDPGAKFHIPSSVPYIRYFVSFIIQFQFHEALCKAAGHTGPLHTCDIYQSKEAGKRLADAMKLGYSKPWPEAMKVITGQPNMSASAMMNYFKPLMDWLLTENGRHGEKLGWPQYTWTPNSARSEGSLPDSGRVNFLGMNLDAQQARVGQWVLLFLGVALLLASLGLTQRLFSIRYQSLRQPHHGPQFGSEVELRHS
Procedure: Inhibitory activity against angiotensin-converting enzyme (ACE)
A 100 μl quantity of an enzyme solution prepared from rabbit lung acetone powder (product of Sigma Chemical Co., Ltd., U.S.A.) was mixed with 100 μl of a sample solution. The mixture was gently shaken at 37° C. for 10 minutes. To the reaction mixture was added 100 μl of a solution containing 6.99 mM of hippurylhistidyl-leucine (product of Peptide Institute, Inc., Japan) as a substrate. The mixture was reacted at 37° C. for 45 minutes while being shaken. The reaction was terminated by addition of 200 μl of a 1N sulfuric acid aqueous solution to the reaction mixture. Sodium chloride (saturation amount) and diethyl ether (2 ml) were added to the reaction mixture to extract the hippuric acid formed by the reaction. The resulting mixture was vigorously shaken for 15 minutes and centrifuged at 2000 rpm for 5 minutes. A 1.5 ml quantity of the ether layer was separated. After the solvent was distilled off, the residue was redissolved in 1.5 ml of distilled water and the absorbance at 228 nm was measured. A control was prepared by repeating the same procedure as above except that 100 μl of distilled water was used in place of the sample solution.
The inhibitory activity was calculated by deducting the absorbance value of the residue formed by addition of the sample solution from that of the control, and the resulting value was divided by the absorbance value of the control and multiplied by 100, thereby giving a percent inhibition. The inhibitory activity was expressed as IC50, i.e., the concentration of the sample solution in the reaction mixture in which concentration 50% inhibition is achieved.
The test compounds used in the experiment are shown below.

[2] = tested on: angiotensin-converting enzyme (ACE); experiment: ACE inhibitory effect in normotensive rats (inhibition of pressor response to angiotensin I); assay type: in vivo; settings: 1 mg/kg directly to the stomach, male Wistar rats, urethane anesthesia, AI/AII ratio
Procedure: ACE Inhibitory effect in normotensive rats
Male Wistar rats weighing 200 to 400 g were anesthetized by the intraperitoneal injection of urethane (1.25 g/kg) and held in the supine position. The degree of inhibition of pressor response to angiotensin (A) I was determined using these rats. The blood pressure was measured with a femoral artery cannula connected to a transducer (product of Nihon Kohden Kabushiki Kaisha, Japan, Model MPU-0.5-290-0-III) and recorded in terms of a mean blood pressure value through a carrier amplifier (product of Nihon Kohden Kabushiki Kaisha, Japan, Model RP-5) on a multipurpose polygraph (product of Nihon Kohden Kabushiki Kaisha, Japan, Model RM-85). The rats were set in an experimental device and left therein for 1 hour to stabilize the hemodynamics. Then experiments were commenced. Since the magnitude of the pressor response to AI varies with time, the ratio of the responses to AI and AII (AI/AII ratio) was used to determine the magnitude of the pressor response to AI which ratio remained more constant. Through the cannulated femoral vein, AI (300 ng/kg) was administered first and AII (300 ng/kg) was given in 5 minutes to measure an AI/AII ratio. At 30 minutes after the first administration of AI, AI (300 ng/kg) was similarly administered and AII (300 ng/kg) was given in 5 minutes, followed by measuring an AI/AII ratio. This procedure was repeated until a constant value of AI/AII ratio was obtained. (The mean value of AI/AII ratios each resulting from the repeated procedure is represented as "C" in an equation to be shown later). At 10 minutes after the final administration of AII, an aqueous solution containing 1 mg/kg of each test compound was given directly to the stomach through a vinyl tube. At 10 minutes after administration of the test compound, AI (300 ng/kg) was given and at 5 minutes later, AII (300 ng/kg) was administered, followed by measurement of the AI/AII ratio (which was represented as "E" in the following equation). An ACE percent inhibition was calculated according to the equation indicated below. [formula]
Subsequently at each time of 60, 120 and 240 minutes after the administration of the test compound, AI (300 ng/kg) was given in the same manner as above and AII (300 ng/kg) was administered in 5 minutes, whereupon an ACE percent inhibition was calculated in the same way.
The results are shown below in Table 26 in which the test compounds listed are those prepared in the Examples indicated therein.

[3] = 15 min. after administration, 1 mg/kg
[4] = 60 min. after administration, 1 mg/kg
[5] = 120 min. after administration, 1 mg/kg
[6] = 240 min. after administration, 1 mg/kg

| SMILES | ACE Percent Inhibition, mean ± SD ([2]; 15 min. after administration) [%] | ACE Percent Inhibition, mean ± SD ([2]; 60 min. after administration) [%] | ACE Percent Inhibition, mean ± SD ([2]; 120 min. after administration) [%] | ACE Percent Inhibition, mean ± SD ([2]; 240 min. after administration) [%] | further results |
| --- | --- | --- | --- | --- | --- |
| CCCCCCSC[C@H](NC(C)C(=O)N1CCC[C@H]1C(=O)O)C(=O)O (single isomer, unassigned) [Test Compound 1] | – | – | – | – | ACE inhibitory activity higher than Test Compound No. 4 (fold) [1]: about 24 times; pIC50 [1]: 9.28 |
| CCCCCCSC[C@H](NC(C)C(=O)N1CCC[C@H]1C(=O)O)C(=O)O (single isomer, unassigned) [Test Compound 2] | – | – | – | – | ACE inhibitory activity higher than Test Compound No. 4 (fold) [1]: about 9.4 times; pIC50 [1]: 8.87 |
| CCCCCC(SC[C@H](NC(C)C(=O)N1CCC[C@H]1C(=O)O)C(=O)OCC)C(=O)OCC (stereo partly shown) [Ex. No. 67*^1] | – | – | – | – | ACE Percent Inhibition, mean ± SD [2, 3]: 23 ± 35%; ACE Percent Inhibition, mean ± SD ([2]; 15 min. after administration, listed as Ex. No. 67*^2, 1 mg/kg): 46 ± 29%; ACE Percent Inhibition, mean ± SD [2, 4]: 55 ± 11%; ACE Percent Inhibition, mean ± SD ([2]; 60 min. after administration, listed as Ex. No. 67*^2, 1 mg/kg): 76 ± 10%; ACE Percent Inhibition, mean ± SD [2, 5]: 59 ± 4%; ACE Percent Inhibition, mean ± SD ([2]; 120 min. after administration, listed as Ex. No. 67*^2, 1 mg/kg): 61 ± 14%; ACE Percent Inhibition, mean ± SD [2, 6]: 63 ± 9%; ACE Percent Inhibition, mean ± SD ([2]; 240 min. after administration, listed as Ex. No. 67*^2, 1 mg/kg): 65 ± 7% |
| CCCCCCC(SC[C@H](NC(C)C(=O)N1CCC[C@H]1C(=O)O)C(=O)OCC)C(=O)OCC (stereo partly shown) [Ex. No. 71*^4] | – | – | – | – | ACE Percent Inhibition, mean ± SD [2, 3]: 47 ± 24%; ACE Percent Inhibition, mean ± SD [2, 4]: 69 ± 6%; ACE Percent Inhibition, mean ± SD [2, 5]: 70 ± 10%; ACE Percent Inhibition, mean ± SD [2, 6]: 60 ± 10% |
| CCCCCCC(SC[C@H](NC(C)C(=O)N1CCC[C@H]1C(=O)O)C(=O)OCC)C(=O)OCC (stereo partly shown) [Ex. No. 71*^ 3] | – | – | – | – | ACE Percent Inhibition, mean ± SD [2, 3]: 39 ± 34%; ACE Percent Inhibition, mean ± SD [2, 4]: 65 ± 14%; ACE Percent Inhibition, mean ± SD [2, 5]: 60 ± 2%; ACE Percent Inhibition, mean ± SD [2, 6]: 67 ± 3% |
| CCCCCCSC[C@H](NC(C)C(=O)N1CCC[C@H]1C(=O)O)C(=O)OCC (stereo partly drawn) [Example 5, N-[(R)-1-ethoxycarbonyl-2-hexylthioethyl]-alanyl-(S)-proline(β-isomer) and L-arginine salt thereof] | 28 ± 14 | 54 ± 3 | 54 ± 17 | 55 ± 7 | – |
| CCCCCCCSC[C@H](NC(C)C(=O)N1CCC[C@H]1C(=O)O)C(=O)OCC (stereo partly drawn) [Example 18, N-[(R)-1-ethoxycarbonyl-2-heptylthioethyl]-alanyl-(S)-proline (β-isomer) and maleate] | 77 ± 8 | 75 ± 23 | 84 ± 10 | 63 ± 6 | – |
| CCOC(=O)[C@H](CSCC1CCCCC1)NC(C)C(=O)N1CCC[C@H]1C(=O)O (stereo partly shown) [Example 21] | 22 ± 25 | 38 ± 29 | 58 ± 15 | 56 ± 14 | – |
| CCOC(=O)[C@H](CSCC=C(C)C)NC(C)C(=O)N1CCC[C@H]1C(=O)O (stereo partly shown) [Example 32] | 15 ± 9 | 31 ± 7 | 33 ± 9 | 29 ± 8 | – |
| CCCCCCCSC[C@H](NC(C)C(=O)N1CCC[C@H]1C(=O)OC)C(=O)OCC (stereo partly shown) [Example 39] | 39 ± 59 | 79 ± 30 | 76 ± 5 | 88 ± 3 | – |
| CCCCCCCSC[C@H](NC(C)C(=O)N1CCC[C@H]1C(=O)OCC)C(=O)OCC (stereo partly shown) [Example 40] | 37 ± 19 | 55 ± 18 | 57 ± 13 | 70 ± 9 | – |
| CCCCCCCSC[C@H](NC(C)C(=O)N1CCC[C@H]1C(=O)OCc1ccccc1)C(=O)OCC (stereo partly shown) [Example 42] | 27 ± 1 | 17 ± 18 | 57 ± 7 | 66 ± 7 | – |
| CCCCCCCCSC[C@H](NC(C)C(=O)N1CCC[C@H]1C(=O)O)C(=O)OCC (stereo partly drawn) [Example 81, N-[(R)-1-ethoxycarbonyl-2-octylthio-ethyl]-alanyl-(S)-proline (β-isomer).L-arginine salt] | 14 ± 17 | 43 ± 18 | 47 ± 11 | 55 ± 6 | – |
